In ChEMBL document CHEMBL5034014, “Melanocortin 1 Receptor Agonists Based on a Bivalent, Bicyclic Peptide Framework” (J Med Chem, 2021):
Bridge positions count the residues as written; N and C are the ends. Square brackets hold non-standard residues; d marks the D form. Peptide text beside a SMILES is read from it. NMeW = CN[C@@H](Cc1c[nH]c2ccccc12)C(=O)O; NMeR = CN[C@@H](CCCNC(=N)N)C(=O)O

Legend:
[1] = molecular target: T1, Melanocyte-stimulating hormone receptor (Homo sapiens, UniProt Q01726); experiment: Agonist activity at human melanocortin receptor 1 expressed in human T-Rex-293 cells assessed as stimulation of intracellular cAMP accumulation incubated for 45 mins by LANCE cAMP assay; assay type: functional, cell-based
T1 sequence (Q01726 whole entry): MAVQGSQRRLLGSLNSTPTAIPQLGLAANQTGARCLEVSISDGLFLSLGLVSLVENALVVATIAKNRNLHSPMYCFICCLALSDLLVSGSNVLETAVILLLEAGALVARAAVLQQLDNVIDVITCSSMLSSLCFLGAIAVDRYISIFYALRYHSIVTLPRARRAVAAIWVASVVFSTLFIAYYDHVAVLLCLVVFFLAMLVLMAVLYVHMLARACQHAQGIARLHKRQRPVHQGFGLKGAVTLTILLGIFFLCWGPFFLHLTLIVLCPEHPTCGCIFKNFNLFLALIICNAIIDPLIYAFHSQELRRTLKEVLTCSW

[2] = molecular target: T2, Melanocortin receptor 3 (Homo sapiens, UniProt P41968); experiment: Agonist activity at human melanocortin receptor 3 expressed in human T-REx-293 cells assessed as stimulation of intracellular cAMP accumulation incubated for 45 mins by LANCE cAMP assay; assay type: functional, cell-based
T2 sequence (P41968 whole entry): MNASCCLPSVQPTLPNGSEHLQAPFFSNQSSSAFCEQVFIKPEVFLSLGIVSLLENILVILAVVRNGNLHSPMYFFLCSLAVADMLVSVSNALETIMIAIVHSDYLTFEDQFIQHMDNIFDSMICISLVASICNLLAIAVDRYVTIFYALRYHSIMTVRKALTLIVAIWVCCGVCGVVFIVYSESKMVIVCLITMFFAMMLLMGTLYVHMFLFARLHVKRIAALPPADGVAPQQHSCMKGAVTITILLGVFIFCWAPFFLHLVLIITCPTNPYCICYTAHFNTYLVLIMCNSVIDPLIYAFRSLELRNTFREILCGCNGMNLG

[3] = molecular target: T3, Melanocortin receptor 4 (Homo sapiens, UniProt P32245); experiment: Agonist activity at human melanocortin receptor 4 expressed in human T-REx-293 cells using low doxycycline assessed as stimulation of intracellular cAMP accumulation incubated for 45 mins by LANCE cAMP assay; assay type: functional, cell-based
T3 sequence (P32245 whole entry): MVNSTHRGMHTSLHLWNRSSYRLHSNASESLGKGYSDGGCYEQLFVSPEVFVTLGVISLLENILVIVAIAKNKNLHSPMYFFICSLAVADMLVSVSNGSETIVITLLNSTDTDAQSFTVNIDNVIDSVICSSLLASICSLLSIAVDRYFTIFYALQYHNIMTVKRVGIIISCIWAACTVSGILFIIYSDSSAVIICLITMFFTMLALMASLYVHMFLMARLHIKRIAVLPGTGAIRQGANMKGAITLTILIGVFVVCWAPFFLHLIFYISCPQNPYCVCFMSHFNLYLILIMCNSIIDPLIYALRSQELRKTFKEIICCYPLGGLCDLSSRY

[4] = molecular target: T1, Melanocyte-stimulating hormone receptor; experiment: Displacement of [125I]-NDP-alpha-MSH from human MC1R expressed in HEK2936E cell membrane measured after 16-23 hrs by 1450 microbeta trilux scintillation proximity assay; assay type: cell membranes
[5] = molecular target: T2, Melanocortin receptor 3; experiment: Displacement of [125I]-NDP-alpha-MSH from human MC3R expressed in HEK2936E cell membrane measured after 16-23 hrs by 1450 microbeta trilux scintillation proximity assay; assay type: cell membranes
[6] = molecular target: T3, Melanocortin receptor 4; experiment: Displacement of [125I]-NDP-alpha-MSH from human MC4R expressed in HEK2936E cell membrane measured after 16-23 hrs by 1450 microbeta trilux scintillation proximity assay; assay type: cell membranes
[7] = molecular target: Melanocortin receptor 5 (Homo sapiens, UniProt P33032); experiment: Displacement of [125I]-NDP-alpha-MSH from human MC5R expressed in HEK2936E cell membrane measured after 16-23 hrs by 1450 microbeta trilux scintillation proximity assay; assay type: cell membranes
Sequence of Melanocortin receptor 5 (P33032 whole entry): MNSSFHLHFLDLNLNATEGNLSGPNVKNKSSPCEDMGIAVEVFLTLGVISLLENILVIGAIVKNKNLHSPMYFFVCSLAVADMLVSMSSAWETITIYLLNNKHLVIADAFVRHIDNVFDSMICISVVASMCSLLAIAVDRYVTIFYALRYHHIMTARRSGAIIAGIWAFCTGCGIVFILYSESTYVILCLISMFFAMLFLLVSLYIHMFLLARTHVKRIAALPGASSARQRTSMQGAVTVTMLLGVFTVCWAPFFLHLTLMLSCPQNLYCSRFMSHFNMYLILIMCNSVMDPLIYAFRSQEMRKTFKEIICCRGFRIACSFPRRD

[8] = molecular target: T3, Melanocortin receptor 4; experiment: Agonist activity at human melanocortin receptor 4 expressed in human T-REx-293 cells using high doxycycline assessed as stimulation of intracellular cAMP accumulation incubated for 45 mins by LANCE cAMP assay; assay type: functional

| Compound | EC50 [1] [nM] | EC50 [2] [nM] | EC50 [3] [nM] | Ki [4] [nM] | Ki [5] [nM] | Ki [6] [nM] | IC50 [7] [nM] | EC50 [8] [nM] |
| --- | --- | --- | --- | --- | --- | --- | --- | --- |
| CC[C@H](C)[C@@H]1NC(=O)[C@@H]2CCCN2C(=O)[C@H](Cc2c[nH]c3ccccc23)NC(=O)[C@H](CCCNC(=N)N)N(C)C(=O)[C@@H](Cc2ccccc2)NC(=O)[C@H](Cc2c[nH]cn2)NC(=O)[C@H]([C@@H](C)O)NC(=O)[C@@H]2CSSC[C@H](NC1=O)C(=O)N[C@@H](Cc1c[nH]cn1)C(=O)N[C@H](Cc1ccccc1)C(=O)N[C@@H](CCCNC(=N)N)C(=O)N[C@@H](C)C(=O)N[C@@H](CCCNC(=N)N)C(=O)N2 | 0.427 | 16.2 | 28.2 | 1.55 | 891 | 50.1 | 1780 | 1.2 |
| CC[C@H](C)[C@@H]1NC(=O)[C@@H]2CCCN2C(=O)[C@H](Cc2c[nH]c3ccccc23)NC(=O)[C@H](CCCNC(=N)N)N(C)C(=O)[C@@H](Cc2ccccc2)NC(=O)[C@H](Cc2c[nH]cn2)NC(=O)[C@H]([C@@H](C)O)NC(=O)[C@@H]2CSSC[C@H](NC1=O)C(=O)N[C@@H](C)C(=O)N[C@H](Cc1ccccc1)C(=O)N[C@@H](CCCNC(=N)N)C(=O)N[C@@H](Cc1c[nH]c3ccccc13)C(=O)N[C@@H](CCCNC(=N)N)C(=O)N2 | 3.63 | 20 | 2.57 | 19.5 | 380 | 10.2 | 162 | 0.457 |
| C[C@@H]1NC(=O)[C@H](Cc2c[nH]c3ccccc23)NC(=O)[C@H](CCCNC(=N)N)NC(=O)[C@@H](Cc2ccccc2)NC(=O)[C@H](Cc2c[nH]cn2)NC(=O)[C@@H]2CSSC[C@H](NC1=O)C(=O)N[C@@H]([C@@H](C)O)C(=O)N[C@@H](Cc1c[nH]cn1)C(=O)N[C@H](Cc1ccccc1)C(=O)N(C)[C@@H](CCCNC(=N)N)C(=O)N[C@@H](Cc1c[nH]c3ccccc13)C(=O)N1CCC[C@H]1C(=O)N[C@@H](C)C(=O)N2 | 1.07 | 4.07 | – | 8.13 | 135 | – | 550 | – |
| CN1C(=O)[C@@H](Cc2ccccc2)NC(=O)[C@H](Cc2c[nH]cn2)NC(=O)CNC(=O)[C@@H]2CSSC[C@H](NC(=O)[C@H](CCCNC(=N)N)NC(=O)[C@@H](CC(=O)O)NC(=O)[C@H](Cc3c[nH]c4ccccc34)NC(=O)[C@@H]1CCCNC(=N)N)C(=O)N[C@@H](Cc1c[nH]cn1)C(=O)N[C@H](Cc1ccccc1)C(=O)N(C)[C@@H](CCCNC(=N)N)C(=O)N(C)[C@@H](Cc1c[nH]c3ccccc13)C(=O)N[C@@H](CCCNC(=N)N)C(=O)N2 | 0.813 | 24 | 490 | 4.9 | 148 | 158 | 1510 | 10.5 |
| CC[C@H](C)[C@@H]1NC(=O)[C@@H]2CCCN2C(=O)[C@H](Cc2c[nH]c3ccccc23)NC(=O)[C@H](CCCNC(=N)N)N(C)C(=O)[C@@H](Cc2ccc3ccccc3c2)NC(=O)[C@@H]2CCCN2C(=O)[C@@H]2CCCN2C(=O)[C@@H]2CSSC[C@H](NC1=O)C(=O)N[C@@H](Cc1c[nH]cn1)C(=O)N[C@H](Cc1ccccc1)C(=O)N[C@@H](CCCNC(=N)N)C(=O)N[C@@H](Cc1c[nH]c3ccccc13)C(=O)N[C@@H](C)C(=O)N2 | 1.32 | 15.8 | – | 3.72 | 100 | – | 129 | – |
| CC[C@H](C)[C@@H]1NC(=O)[C@@H]2CCCN2C(=O)[C@H](Cc2c[nH]c3ccccc23)NC(=O)[C@H](CCCNC(=N)N)N(C)C(=O)[C@@H](Cc2ccccc2)NC(=O)[C@H](Cc2c[nH]cn2)NC(=O)[C@H](CC(=O)O)NC(=O)[C@@H]2CSSC[C@H](NC1=O)C(=O)N[C@@H](Cc1c[nH]cn1)C(=O)N[C@H](Cc1ccccc1)C(=O)N(C)[C@@H](CCCNC(=N)N)C(=O)N(C)[C@@H](Cc1c[nH]c3ccccc13)C(=O)N[C@@H](Cc1ccc(O)cc1)C(=O)N2 | 0.0646 | 18.2 | 85.1 | 0.708 | 891 | 355 | 1230 | 4.27 |
| CC[C@H](C)[C@@H]1NC(=O)[C@@H]2CCCN2C(=O)[C@H](Cc2c[nH]c3ccccc23)NC(=O)[C@H](CCCNC(=N)N)N(C)C(=O)[C@@H](Cc2ccccc2)NC(=O)[C@H](Cc2c[nH]cn2)NC(=O)[C@H]([C@@H](C)O)NC(=O)[C@@H](NC(C)=O)CSSC[C@@H](C(N)=O)NC1=O | 8.71 | 39.8 | 60.3 | 195 | 3980 | 347 | 11200 | 2.57 |
| CC[C@H](C)[C@@H]1NC(=O)[C@@H]2CCCN2C(=O)[C@@H]2CCCN2C(=O)[C@H]([C@@H](C)CC)NC(=O)[C@H](CO)NC(=O)[C@H](C)NC(=O)[C@H]([C@@H](C)O)NC(=O)[C@@H]2CSSC[C@H](NC1=O)C(=O)N[C@@H](Cc1c[nH]cn1)C(=O)N[C@H](Cc1ccccc1)C(=O)N(C)[C@@H](CCCNC(=N)N)C(=O)N(C)[C@@H](Cc1c[nH]c3ccccc13)C(=O)N[C@@H](CCCNC(=N)N)C(=O)N2 (cyclo(CTASIPPICH[dF][NMeR][NMeW]R); disulfide 1-9) | 0.759 | 129 | > 1000 | – | > 1000 | > 1000 | 724 | 58.9 |

More lines, in order of falling EC50 [1], values ahead:

| EC50 [1] [nM] | EC50 [2] [nM] | EC50 [3] [nM] | Ki [4] [nM] | Ki [5] [nM] | Ki [6] [nM] | IC50 [7] [nM] | EC50 [8] [nM] | Compound |
| --- | --- | --- | --- | --- | --- | --- | --- | --- |
| 0.832 | 38.9 | 52.5 | 11.7 | 708 | 72.4 | 631 | 3.16 | CC[C@H](C)[C@@H]1NC(=O)[C@@H]2CCCN2C(=O)[C@H](Cc2c[nH]c3ccccc23)NC(=O)[C@H](CCCNC(=N)N)N(C)C(=O)[C@@H](Cc2ccccc2)NC(=O)[C@H](Cc2c[nH]cn2)NC(=O)[C@H]([C@@H](C)O)NC(=O)[C@@H]2CSSC[C@H](NC1=O)C(=O)N[C@@H](Cc1c[nH]cn1)C(=O)N[C@H](Cc1ccccc1)C(=O)N[C@@H](CCCCN)C(=O)N[C@@H](Cc1c[nH]c3ccccc13)C(=O)N[C@@H](C)C(=O)N2 |
| 0.141 | 72.4 | 398 | 1.29 | 1740 | 589 | 3090 | 22.9 | CC[C@H](C)[C@@H]1NC(=O)[C@@H]2CCCN2C(=O)[C@H](Cc2c[nH]c3ccccc23)NC(=O)[C@H](CCC(=O)O)NC(=O)[C@@H](Cc2ccccc2)NC(=O)[C@H](Cc2c[nH]cn2)NC(=O)[C@H]([C@@H](C)O)NC(=O)[C@@H]2CSSC[C@H](NC1=O)C(=O)N[C@@H](Cc1c[nH]cn1)C(=O)N[C@H](Cc1ccccc1)C(=O)N(C)[C@@H](CCCNC(=N)N)C(=O)N(C)[C@@H](Cc1c[nH]c3ccccc13)C(=O)N[C@@H](CCCNC(=N)N)C(=O)N2 |
| 0.138 | 17.4 | – | 1.48 | 269 | – | 174 | – | CC[C@H](C)[C@@H]1NC(=O)[C@@H]2CCCN2C(=O)[C@H](Cc2c[nH]c3ccccc23)NC(=O)[C@H](CCCNC(=N)N)NC(=O)[C@@H](Cc2ccccc2)NC(=O)[C@H](Cc2c[nH]cn2)NC(=O)[C@H]([C@@H](C)O)NC(=O)[C@@H]2CSSC[C@H](NC1=O)C(=O)N[C@@H](Cc1c[nH]cn1)C(=O)N[C@H](Cc1ccccc1)C(=O)N[C@@H](CCCNC(=N)N)C(=O)N[C@@H](Cc1c[nH]c3ccccc13)C(=O)N[C@@H](CCCNC(=N)N)C(=O)N2 |
| 0.135 | 7.76 | – | 1.12 | 389 | – | 174 | – | CC[C@H](C)[C@@H]1NC(=O)[C@@H]2CCCN2C(=O)[C@H](Cc2c[nH]c3ccccc23)NC(=O)[C@H](CCCNC(=N)N)N(C)C(=O)[C@@H](Cc2ccccc2)NC(=O)[C@H](Cc2c[nH]cn2)NC(=O)[C@H]([C@@H](C)O)NC(=O)[C@@H]2CSSC[C@H](NC1=O)C(=O)N[C@@H](Cc1c[nH]cn1)C(=O)N[C@H](Cc1ccccc1)C(=O)N[C@@H](CCCNC(=N)N)C(=O)N[C@@H](Cc1c[nH]c3ccccc13)C(=O)N[C@@H](CCCNC(=N)N)C(=O)N2 |
| 0.0562 | 1.45 | 2.04 | 0.912 | 85.1 | 13.5 | 200 | 0.178 | CC[C@H](C)[C@@H]1NC(=O)[C@@H]2CCCN2C(=O)[C@H](Cc2c[nH]c3ccccc23)NC(=O)[C@H](CCCNC(=N)N)N(C)C(=O)[C@@H](Cc2ccccc2)NC(=O)[C@H](Cc2c[nH]cn2)NC(=O)[C@H]([C@@H](C)O)NC(=O)[C@@H]2CSSC[C@H](NC1=O)C(=O)N[C@@H](Cc1c[nH]cn1)C(=O)N[C@H](Cc1ccccc1)C(=O)N[C@@H](CCCNC(=N)N)C(=O)N[C@@H](Cc1c[nH]c3ccccc13)C(=O)N[C@@H](C)C(=O)N2 |
